Test results reported in US9340577B2, “HLA binding motifs and peptides and their uses” (priority 1992, dated 2016).
No end group written: not given here.

What was measured:
Experiment in all cases: biochemical
DRB1*0901 = DRB1*0901 (Homo sapiens, UniProt P01903+P01911, A100R/A103E/D57H/D86V/F55Y/F60I/F76Y/I96F/K127E/L162R/M171V/P40D/Q125H/Q99R/R33Q/R42F/S133A/S66N/T210M/V115G/W38K/Y107V/Y59G/Y89S); assay type: binding
DRB1*1302 = DRB1*1302 (Homo sapiens, UniProt P01903+P01911, A100E/A169T/K41T/L162R/M171V/P40S/Q125H/Q178H/Q39Y/Q99D/R42S/S66N/T262R/V115G/W38E/Y61H); assay type: binding
Chain of DRB1*1302 (P01903 26-254 limits assumed, other chains not shown): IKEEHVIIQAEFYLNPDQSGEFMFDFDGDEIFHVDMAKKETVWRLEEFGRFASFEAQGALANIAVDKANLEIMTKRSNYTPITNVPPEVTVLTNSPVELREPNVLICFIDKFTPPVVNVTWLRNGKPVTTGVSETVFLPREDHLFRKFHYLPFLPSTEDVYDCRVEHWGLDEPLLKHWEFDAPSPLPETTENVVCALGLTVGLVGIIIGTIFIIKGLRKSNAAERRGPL

DRB1*1201 = DRB1*1201 (Homo sapiens, UniProt P01903+P01911, A100R/A169T/D57E/D86V/F55L/H45Y/K41T/L162R/M171V/P40S/Q125H/Q178H/Q39Y/Q99D/R42G/S66L/T262R/V114A/V67L/W38E/Y59H/Y61H/Y89S); assay type: binding
DRB1*0301 = DRB1*0301 (Homo sapiens, UniProt P01903+P01911, A100K/A102G/A103R/A169T/F55Y/I96L/K41T/L162R/M171V/P40S/Q125H/Q178H/Q39Y/R42S/S66N/T106N/T262R/W38E/Y61H); assay type: binding
Chain of DRB1*0301 (P01903 26-254 limits assumed, other chains not shown): as above

DRB1*0802 = DRB1*0802 (Homo sapiens, UniProt P01903+P01911, A100R/A103L/A169T/F76Y/H45Y/I96F/K41T/L162R/M171V/P40S/Q125H/Q178H/Q39Y/Q99D/R218S/R42G/S66Y/V115G/W38E); assay type: binding
DR1 (DRB1*0101) = DR1 (DRB1*0101) (Homo sapiens, UniProt P01903+P01911, A100R/D57E/F55L/F60I/F76Y/I96L/L162R/M171V/P40L/Q125E/R42F/V115G/Y59C); assay type: binding
DRB1*1101 = DRB1*1101 (Homo sapiens, UniProt P01903+P01911, A100R/A169T/A87E/I96F/K41T/L162R/M171V/P40S/Q125H/Q178H/Q39Y/Q99D/R42S/S66Y/T262R/V115G/W38E); conditions: Binding affinity DRB1 *1101
Chain of DRB1*1101 (P01903 26-254 limits assumed, other chains not shown): as above

DRB4*0101 = DRB4*0101 (Homo sapiens, UniProt P01903+P13762, G164S); assay type: binding
DR7 (DRB1*0701) = DR7 (DRB1*0701) (Homo sapiens, UniProt P01903+P01911, A100R/A102G/A103Q/D57E/D86V/E43K/F76Y/K127E/L162R/M171V/P40G/Q125H/Q99D/R33Q/R42Y/R54Q/S133A/S66F/T210M/V115G/Y107V/Y59L/Y89S); assay type: binding
DRB5*0101 = DRB5*0101 (Homo sapiens, UniProt P01903+Q30154); conditions: Binding affinity DRB5 *0101
DRB3*0101 = DRB3*0101 (Homo sapiens, UniProt P01903+P79483); assay type: binding
DR4w4 (DRB1*0401) = DR4w4 (DRB1*0401) (Homo sapiens, UniProt P01903+P01911, A100K/A169T/F76Y/I96L/K127E/L162R/M171V/N62H/P40V/Q125Y/R42H/S133A/S149N/S66Y/V115G/V209L/W38E); assay type: binding
DRB1*1501 = DRB1*1501 (Homo sapiens, UniProt P01903+P01911); assay type: binding
DRB1*0405 = DRB1*0405 (Homo sapiens, UniProt P01903+P01911, A100R/A169T/D86S/F76Y/I96L/K127E/L162R/M171V/N62H/P40V/Q125Y/R42H/S133A/S149N/S66Y/V115G/V209L/W38E); assay type: binding

| Compound | IC50 (DRB1*0901) | IC50 (DRB1*1302) | IC50 (DRB1*1201) | IC50 (DRB1*0301) | IC50 (DRB1*0802) | IC50 (DR1 (DRB1*0101)) | IC50 (DRB1*1101) | IC50 (DRB4*0101) | IC50 (DR7 (DRB1*0701)) | IC50 (DRB5*0101) | IC50 (DRB3*0101) | IC50 (DR4w4 (DRB1*0401)) | IC50 (DRB1*1501) | IC50 (DRB1*0405) |
| --- | --- | --- | --- | --- | --- | --- | --- | --- | --- | --- | --- | --- | --- | --- |
| RREVYDFAFRDLCIV [Peptide 1543.25] | > 20000 nM | > 20000 nM | 11000 nM | 11000 nM | 9030 nM | > 20000 nM | > 20000 nM | 2460 nM | 73 nM | 19800 nM | > 20000 nM | 4030 nM | > 20000 nM | – |
| CC(C)C[C@H](NC(=O)[C@H](CC(=O)O)NC(=O)[C@@H](NC(=O)[C@@H](NC(=O)[C@H](CCC(=O)O)NC(=O)[C@@H]1CCCN1C(=O)[C@H](CCC(N)=O)NC(=O)[C@H](CC(C)C)NC(=O)[C@H](CC(=O)O)NC(=O)[C@@H](N)CC(C)C)[C@@H](C)O)[C@@H](C)O)C(=O)N[C@@H](Cc1ccc(O)cc1)C(=O)N[C@@H](CS)C(=O)N[C@@H](Cc1ccc(O)cc1)C(=O)N[C@@H](CCC(=O)O)C(=O)N[C@@H](CCC(N)=O)C(=O)O [Peptide 1543.04] | > 20000 nM | > 20000 nM | > 20000 nM | 590 nM | > 20000 nM | > 20000 nM | > 20000 nM | – | > 20000 nM | > 20000 nM | > 20000 nM | 1900 nM | > 20000 nM | > 20000 nM |
| YRHYQYSLYGKTLEE [Peptide 1543.58] | 273 nM | 26 nM | 12000 nM | > 20000 nM | 410 nM | 11 nM | 953 nM | 2540 nM | 146 nM | 640 nM | > 20000 nM | 4.1 nM | 2900 nM | 25 nM |
| CIHSTATDLRTLQQM [Peptide 1543.45] | 19000 nM | 2990 nM | 4510 nM | 213 nM | 493 nM | 448 nM | – | 159 nM | 459 nM | 2450 nM | > 20000 nM | 14 nM | 15000 nM | 370 nM |
| KERHVNANKRFHNIM [Peptide 1543.59] | 2850 nM | 5.2 nM | 260 nM | 1350 nM | 1230 nM | 413 nM | 83 nM | 8480 nM | – | 502 nM | > 20000 nM | 55 nM | 12900 nM | 26 nM |
| QERPRKLPQLCTELQ [Peptide 1543.22] | > 20000 nM | > 20000 nM | 11700 nM | > 20000 nM | > 20000 nM | > 20000 nM | > 20000 nM | 81 nM | > 20000 nM | > 20000 nM | > 20000 nM | 5120 nM | > 20000 nM | > 20000 nM |
| DGVSHAQLPARRAEP [Peptide 1543.18] | > 20000 nM | > 20000 nM | > 20000 nM | 2480 nM | > 20000 nM | – | > 20000 nM | 1930 nM | > 20000 nM | 392 nM | > 20000 nM | > 20000 nM | > 20000 nM | > 20000 nM |
| QSTQVDIRILQELLM [Peptide 1543.11] | > 20000 nM | 607 nM | 2340 nM | 2710 nM | – | 544 nM | 6480 nM | 180 nM | 5390 nM | > 20000 nM | > 20000 nM | 4560 nM | > 20000 nM | 3990 nM |
| RFHNIMGRWTGRCSE [Peptide 1543.60] | 8860 nM | – | 18300 nM | 5480 nM | 27 nM | 5.6 nM | 24 nM | 1120 nM | – | 374 nM | 7840 nM | 332 nM | 123 nM | 1840 nM |
| TRPRTLHELCEVLEE [Peptide 1543.42] | > 20000 nM | > 20000 nM | > 20000 nM | > 20000 nM | > 20000 nM | 18000 nM | > 20000 nM | 2590 nM | > 20000 nM | > 20000 nM | > 20000 nM | – | > 20000 nM | 674 nM |
| SEVYDFVFADLRIVY [Peptide 1543.48] | 33 nM | 46 nM | 8090 nM | 5.7 nM | 4040 nM | 412 nM | > 20000 nM | 1420 nM | 51 nM | 2350 nM | 558 nM | 620 nM | – | 2920 nM |
| LCVNSTASDLRTIQQ [Peptide 1543.15] | > 20000 nM | – | 1590 nM | 6230 nM | 4380 nM | 1580 nM | – | 2110 nM | 723 nM | > 20000 nM | > 20000 nM | 63 nM | > 20000 nM | 490 nM |
| TELNTSLQDIEITCV [Peptide 1543.34] | > 20000 nM | 7070 nM | > 20000 nM | > 20000 nM | 5520 nM | > 20000 nM | > 20000 nM | 922 nM | > 20000 nM | > 20000 nM | > 20000 nM | > 20000 nM | > 20000 nM | > 20000 nM |
| QRFHNIRGRWTGRCM [Peptide 1543.27] | > 20000 nM | 5310 nM | 14600 nM | > 20000 nM | 894 nM | 36 nM | 574 nM | 4550 nM | – | 919 nM | > 20000 nM | 2900 nM | 17200 nM | 4470 nM |
| PDGQAEQATSNYYIV [Peptide 1543.43] | 2330 nM | > 20000 nM | > 20000 nM | > 20000 nM | > 20000 nM | > 20000 nM | – | > 20000 nM | 51 nM | > 20000 nM | > 20000 nM | – | > 20000 nM | 5120 nM |
| EYVLDLYPEPTDLYC [Peptide 1543.12] | > 20000 nM | > 20000 nM | 2210 nM | 760 nM | > 20000 nM | 9080 nM | > 20000 nM | 159 nM | > 20000 nM | > 20000 nM | 734 nM | – | 13000 nM | 5880 nM |
| RVCLLFYSKVRKYRY [Peptide 1543.54] | 656 nM | 89 nM | 603 nM | 71 nM | – | – | 4260 nM | 7740 nM | 232 nM | 3850 nM | 868 nM | 299 nM | 717 nM | 233 nM |
| RHLDKKQRFHNIRGR [Peptide 1543.26] | > 20000 nM | > 20000 nM | > 20000 nM | 5210 nM | 7720 nM | 556 nM | – | > 20000 nM | 591 nM | 5760 nM | > 20000 nM | 6200 nM | > 20000 nM | 1550 nM |
